From PMC8519022, “Diarylethene‐Based Photoswitchable Inhibitors of Serine Proteases” (Angewandte Chemie (International Ed. in English), 2021)
Like-named read-outs stand apart in the source and are kept apart here. *1 amine or outer side, *2 acyl side, *3 side chain or, on linkers, in order; H or OH if unused. Where a SMILES comes first, the peptide text is derived from it. Bridges are numbered along the chain shown (N, C = ends). X1 = Cc1sc(C(=O)[C@@H]2CCCN2[*:2])cc1C1=C(c2cc(C(=O)[*:1])sc2C)CCC1

What was measured:
[1] = Experimental: The photostability in repeated cycles of reversible photoisomerization was studied on three selected compounds (linear three-peptide […]
samples were prepared in the same manner as for UV-Vis absorption characterization, namely at 20 mM in deoxygenated water.
The UV irradiation was done at spectral range of 320 -400 nm, 167 mW/cm 2 for 15 s; the visible light irradiation at 570 nm, 143 mW/cm2 for 60 s (both using LUMATEC® light source).
Figure S3. Photostability study of the three selected peptides at 20 mM in deoxygenated water at 22°C in 15 cycles of reversible photoisomerization with visible (570 nm, 143 mW/cm2 for 60 s) and UV light (320-400 nm, 167 mW/cm2 for 15 s). The left plots show absorption spectra after each 5 cycles (normalized at 575 nm for ring-closed forms). The right plots show the % of ring-closed form measured as absorbance at 575 nm.

[2] = molecular target: T1, Bos taurus trypsin 1 (T1) (Bos taurus, UniProt P00760); test: Trypsin inhibition, Ki by Lineweaver-Burk analysis;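 further: trypsin activity followed by spectrophotometric hydrolysis kinetics of the chromogenic substrate BAPNA in Tris buffer, Ki obtained from double-reciprocal Lineweaver–Burk plots at several substrate concentrations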
T1 sequence (P00760 24-246): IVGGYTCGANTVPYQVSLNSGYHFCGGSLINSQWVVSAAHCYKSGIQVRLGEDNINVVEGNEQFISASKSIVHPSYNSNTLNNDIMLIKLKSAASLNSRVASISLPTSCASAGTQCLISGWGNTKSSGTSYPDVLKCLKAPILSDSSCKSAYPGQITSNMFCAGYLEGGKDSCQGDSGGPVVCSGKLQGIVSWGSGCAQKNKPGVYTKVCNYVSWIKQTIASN
Protocol: (§7) The inhibition of trypsin and α-chymotrypsin was investigated by two methods. First, the inhibition was determined at a fixed enzyme and substrate concentration, whereas the inhibitor concentration varied. By plotting the protease activity against an inhibitor’s concentration, IC50 (the half-maximal inhibitory concentration) was determined.
(§8) Lineweaver–Burk analysis (see below), the Ki values for all peptide inhibitors were determined with high accuracy.
(§9) All measurements were performed with p-nitroaniline-based chromogenic substrates (λabs = 405 nm) in 96-well microtiter plates using
EpochTM 2 microplate spectrophotometer. For trypsin measurements the Tris buffer (50 mM Tris-HCl, 25 mM CaCl2, 0.005% Tween®
For the measurements, a fresh 0.92 µM trypsin solution was prepared from the storage aliquot and kept on ice.
A stock solution of the substrate BAPNA (Nα-Benzoyl-DL-arginine 4-nitroanilide hydrochloride) at the concentration of 50 mM in
aqueous dimethyl sulfoxide (DMSO) (100 mg of BAPNA in 4.6 mL of DMSO:water mixture 1:1) was pre pared and stored at RT.
peptide solutions at the concentration of 100 µM, which was further diluted to 10, 1, or 0.1 µM if required, were prepared in Milli-Q®
For the determination of IC50, a double dilution series of inhibit ors were prepared in a 96 -well plate (12 concentrations, two repeats
for each concentration, 200 µL of Tris buffer in each well). Subsequently, a trypsin solution (20 µL, 150 nM) was added to ea ch well
with the tested peptide and to the control row. Soluti ons in each well were intensely mixed using a multichannel pipette (from lower
concentration to higher). After a pre -incubation period (5 min), the substrate BAPNA was added to each well (20 µL, 25 mM).
solutions were thoroughly mixed with the multicha nnel pipette, and the kinetics of substrate hydrolysis was recorded with an interval
of 1 min between measurements over 20 min. The total volume in each well was 240 µL, final trypsin and BAPNA concentrations
were 12.5 nM and 2.08 mM, respectively. The mea n values of the two repeats of the slope of absorption vs. time curves were
calculated. The activities at different inhibitor concentrations were then calculated by taking the control curves’ slope val ues (no
inhibitor) as the 100% enzyme activity. The inh ibition activity IC 50 against α-chymotrypsin (α-chymotrypsin from bovine pancreas
(§10) type II) was measured in the same way except that a different substrate, Ac-EAPF-pNA (Ac-Glu-Ala-Pro-Phe-pNA), was used (20
Inhibitory constants Ki were determined by Lineweaver-Burk (LWB) double-reciprocal analysis according to a published protocol.[S5]
Briefly, a fresh inhibitor/enzyme mixture was prepared in a glass vial and distributed to 2x6 wells (200 µL in each well, enzyme
concentration after dilution 12 nM). An enzyme without an inhibitor was added to the control wells. Aliquots of varying substrate stock
solutions were added with a multichannel pipette to each well. For trypsin inhibition experiments, BAPNA (20 µL per well of 20, 22.7,
26, 29.8, 34, 40 mM) and for α-chymotrypsin Ac-EAPF-pNA (20 µL per well of 16, 12.48, 10, 8, 6.4, 5.44 mM) were used, respectively.
Well contents were thoroughly mixed using a multichannel pipette, and a plate reader was used to monitor the hydrolysis kinetics
(sampling interval of 1 min over 20 min).

[3] = molecular target: T2, trypsin (Bos taurus, UniProt P00760); test: Trypsin inhibition, IC50 at fixed enzyme and substrate concentration; format: biochemical
T2 sequence (P00760 24-246): T1 sequence (P00760 24-246)
Text: (§1) 6. Protease inhibition assays
(§2) With the second method, using
(§3) EpochTM 2 microplate spectrophotometer.
(§4) deionized ultrapure water.
(§5) concentration to higher). […] The
(§6) inhibitor) as the 100% enzyme activity.

[4] = molecular target: T2, trypsin; test: Proteolytic stability: T1-induced hydrolysis rate constants (kH); details: non-photoswitchable reference compound; peptide 50 μM, trypsin 0.5 μM, 50 mM Tris-HCl pH 8.2, 25 mM CaCl2, 0.005% Tween 20, 22°C, analytical HPLC, zero-order fit
Protocol: Analysis of the proteolytic stability
(§11) Proteolytic stability of the peptides was characterized by determining hydrolysis rates (kH) by the action of trypsin in a 50 mM Tris–
(§12) HCl buffer, pH 8.2, supplemented with 25 mM CaCl2 and 0.005% Tween®20 at 22°C. The peptides at a concentration of 50 μM were
(§13) mixed with trypsin (0.5 μM) in a 2 mL total volume. At selected time intervals, 70 μL samples of the mixture were taken, quenched
(§14) by addition 130 μL 2% aqueous formic acid, and immediately analyzed by analytical HPLC. The kH values were calculated from the
(§15) time-dependent data assuming zero-order kinetics (zero-order kinetics applies due to the high substrate/enzyme ratio of 100 to 1).
(§16) For the fitting the linear part of the hydrolysis curve was taken excluding the last time point in which the entire peptide inhibitor was
(§17) analogues could hydrolyze at two positions: at the Lys (P1 position) of the inhibitory loop and after the stabilizing loop’s arginine
(§18) residue (P4 position).[S6] The ultimate product (i.e., cleaved at both positions) had, therefore, a MALDI-TOF-MS detectable mass
(§19) The identity of each peak was confirmed by MALDI -TOF-MS. Detection – 220 nm, hydrolysis time is indicated at each chromatogram.

[5] = molecular target: T3, α-chymotrypsin from bovine pancreas type II (Bos taurus, UniProt P00766); test: α-Chymotrypsin inhibition, IC50 at fixed enzyme and substrate concentration; format: biochemical; design: host or cells: bovine pancreas
Text: as §1, §2, §3, §4, §5, §6

[6] = molecular target: T3, α-chymotrypsin from bovine pancreas type II; test: α-Chymotrypsin inhibition, Ki by Lineweaver-Burk analysis
Protocol: as §7, §8, §9
EpochTM 2 microplate spectrophotometer. For trypsin measurements the Tris buffer (50 mM Tris-HCl, 25 mM CaCl2, 0.005% Tween® […]
solutions were thoroughly mixed with the multicha nnel pipette, and the kinetics of substrate hydrolysis was recorded with an interval […]
calculated. The activities at different inhibitor concentrations were then calculated by taking the control curves’ slope val ues (no […]
as §10
Inhibitory constants Ki were determined by Lineweaver-Burk (LWB) double-reciprocal analysis according to a published protocol.[S5] […]
Well contents were thoroughly mixed using a multichannel pipette, and a plate reader was used to monitor the hydrolysis kinetics […]

[7] = molecular target: T2, trypsin; details: for k H [M^−1 s^−1] (closed): pH 8.2
Protocol: Analysis of the proteolytic stability
as §11, §12, §13, §14, §15, §16, §17, §18, §19

[8] = system: other E. coli strains; details: other E. coli strains in MHB medium; ref S7; cited from earlier work

For CC[C@H](C)[C@@H]1NC(=O)[C@@H]2CCCN2C(=O)[C@@H]2CCCN2C(=O)[C@H]([C@@H](C)CC)NC(=O)[C@H](CO)NC(=O)[C@H](CCCCN)NC(=O)[C@H]([C@@H](C)O)NC(=O)[C@H](C)NC(=O)[C@H](CCCNC(=N)N)NC(=O)c2cc(c(C)s2)C2=C(CCC2)c2cc(sc2C)C(=O)[C@@H]2CCCN2C(=O)[C@H](Cc2ccccc2)NC(=O)[C@H](C)NC1=O [Peptide S2] (RATKSIPPIAF; linker N-C via X1), the “degradation in repeated cycles of reversible photoisomerization” value (from here on “degradation in repeated cycles”) [1] was “less than 30%”, the Ki ([2]; K i [nM] (closed)) was 659 ± 33 nM and the Ki ([2]; K i [nM] (open)) was 203 ± 6 nM.
For CC[C@H](C)[C@@H]1NC(=O)[C@@H]2CCCN2C(=O)[C@@H]2CCCN2C(=O)[C@H]([C@@H](C)CC)NC(=O)[C@H](CO)NC(=O)[C@H](CCCCN)NC(=O)[C@H]([C@@H](C)O)NC(=O)[C@@H]2CSSC[C@H](NC1=O)C(=O)N[C@@H](CCCNC(=N)N)C(=O)N1CCC[C@H]1C(=O)N[C@@H](CC(=O)O)C(=O)NCC(=O)N[C@@H](Cc1ccccc1)C(=O)N2 [SFTI‐1i, reference compound] (cyclo(CRPDGFCTKSIPPI); disulfide 1-7), the IC50 ([3]; non-photoswitchable reference, trypsin 12.5 nM, BAPNA 2.08 mM, Tris pH 8.2, 5 min pre-incubation, read-out: IC50, nM (trypsin inhibition)) was 15.6 nM and the “k H [M^−1 s^−1]” value [4] was 2.0±0.2×10^−5 M^−1 s^−1.
CC[C@H](C)[C@@H]1NC(=O)[C@@H]2CCCN2C(=O)[C@@H]2CCCN2C(=O)[C@H]([C@@H](C)CC)NC(=O)[C@H](CO)NC(=O)[C@H](Cc2ccccc2)NC(=O)[C@H]([C@@H](C)O)NC(=O)[C@@H]2CSSC[C@H](NC1=O)C(=O)N[C@@H](Cc1ccccc1)C(=O)N1CCC[C@H]1C(=O)N[C@@H](CC(=O)O)C(=O)NCC(=O)N[C@@H](CCCNC(=N)N)C(=O)N2 [SFTI‐5F, reference compound] (cyclo(CFPDGRCTFSIPPI); disulfide 1-7) gave an IC50 ([5]; non-photoswitchable control, enzyme 12.5 nM, Ac-EAPF-pNA 1.33 mM, read-out: IC50, nM (α-chymotrypsin inhibition)) of 6.6 nM and a Ki [6] of 0.0028 µM.
In the case of CC(=O)N[C@@H](C)C(=O)N1CCC[C@H]1C(=O)c1cc(C2=C(c3cc(C(=O)N[C@@H](C)C(N)=O)sc3C)CCC2)c(C)s1 [Ac‐Ala‐1‐Ala‐NH2], the “degradation in repeated cycles” value ([1]; 15 cycles, UV 320-400 nm 167 mW/cm2 15 s, visible 570 nm 143 mW/cm2 60 s, 20 mM in deoxygenated water, 22°C, absorbance 575 nm) is reported as “less than 30%”.
In the case of CC[C@H](C)[C@@H]1NC(=O)[C@@H]2CCCN2C(=O)[C@@H]2CCCN2C(=O)[C@H]([C@@H](C)CC)NC(=O)[C@H](CO)NC(=O)[C@H](CCCCN)NC(=O)[C@H]([C@@H](C)O)NC(=O)[C@@H]2CSSC[C@H](NC1=O)C(=O)N[C@@H](Cc1ccccc1)C(=O)N[C@@H](CC(C)C)C(=O)N1CCC[C@H]1C(=O)c1cc(c(C)s1)C1=C(CCC1)c1cc(sc1C)C(=O)N[C@@H](C(C)C)C(=O)N[C@@H](CCCNC(=N)N)C(=O)N2 [Peptide S10n] (VRCTKSIPPICFL; disulfide 3-11; linker N-C via X1), the “k H (closed) /k H (open)” value [7] is reported as 15.7, the “k H [M^−1 s^−1] (closed)” value [7] is reported as 3.6±0.3×10^−3 M^−1 s^−1 and the IC50 [5] is reported as 50000 to 100000 nM. The Ki ([2]; K i [nM] (closed)) was 181 ± 7 nM and the Ki ([2]; K i [nM] (open)) was 17.5 ± 0.7 nM.
In the case of CC[C@H](C)[C@H](NC(=O)[C@H](CCCNC(=N)N)NC(=O)[C@H](CCCNC(=N)N)NC(=O)[C@H](Cc1ccccc1)NC(=O)[C@H](CC(C)C)NC(=O)[C@H](CCCNC(=N)N)NC(=O)[C@@H](N)CCCNC(=N)N)C(=O)N[C@@H](CC(C)C)C(=O)N[C@@H](CCCNC(=N)N)C(=O)N[C@@H](Cc1c[nH]c2ccccc12)C(=O)N[C@@H](CC(C)C)C(N)=O [BP100‐RW] (H-RRLFRRILRWL-NH2), the MIC [8] is listed as 0.2 to 0.5 mg/L.
In the case of CC[C@H](C)[C@@H]1NC(=O)[C@@H]2CCCN2C(=O)[C@@H]2CCCN2C(=O)[C@H]([C@@H](C)CC)NC(=O)[C@H](CO)NC(=O)[C@H](CCCCN)NC(=O)[C@H]([C@@H](C)O)NC(=O)[C@@H]2CSSC[C@H](NC1=O)C(=O)N[C@@H](CCCNC(=N)N)C(=O)N[C@@H](CC(C)C)C(=O)N1CCC[C@H]1C(=O)c1cc(c(C)s1)C1=C(CCC1)c1cc(sc1C)C(=O)N[C@@H](C(C)C)C(=O)N[C@@H](Cc1ccccc1)C(=O)N2 [Peptide S10i] (VFCTKSIPPICRL; disulfide 3-11; linker N-C via X1), the “degradation in repeated cycles” value [1] is reported as “less than 30%”, the “k H (closed) /k H (open)” value [7] is reported as 4.2 and the “k H [M^−1 s^−1] (closed)” value [7] is reported as 2.2±0.3×10^−4 M^−1 s^−1. The Ki ([2]; K i [nM] (closed)) was 44.8 ± 2.2 nM and the Ki ([2]; K i [nM] (open)) was 5.1 ± 0.4 nM.
CC[C@H](C)[C@@H]1NC(=O)[C@@H]2CCCN2C(=O)[C@@H]2CCCN2C(=O)[C@H]([C@@H](C)CC)NC(=O)[C@H](CO)NC(=O)[C@H](Cc2ccccc2)NC(=O)[C@H]([C@@H](C)O)NC(=O)[C@@H]2CSSC[C@H](NC1=O)C(=O)N[C@@H](Cc1ccccc1)C(=O)N[C@@H](CC(C)C)C(=O)N1CCC[C@H]1C(=O)c1cc(c(C)s1)C1=C(CCC1)c1cc(sc1C)C(=O)N[C@@H](C(C)C)C(=O)N[C@@H](CCCNC(=N)N)C(=O)N2 [Peptide S5F] (VRCTFSIPPICFL; disulfide 3-11; linker N-C via X1) showed an IC50 [3] of 50000 to 100000 nM.
